Data reported in publication PMC12442245, “Activity Analysis of the P2X Receptor Antagonist PPADS against Signal Transducer and Activator of Transcription Proteins” (Chembiochem, 2025).

Assays:
STAT3 = STAT3 (Homo sapiens, UniProt P40763); assay: Competitive fluorescence polarization (FP) assay, STAT3; type: binding; details: no reducing agent, 1 h
From the text: Screening of chemical libraries
Screening of chemical libraries comprising approximately 5000 known bioactive compounds in fluorescence polarization-based assays against phosphorylation-dependent protein-protein interaction domains, including STAT proteins, has been described.[1] PPADS was purchased from Sigma-Aldrich, and iso-PPADS from Bio-Techne.
(§1) Fluorescence polarization assays
(§2) Competitive fluorescence polarization (FP) assays for STAT1,[2] STAT3,[3] STAT4,[4] STAT5a,[5] STAT5b[6] and STAT6[1] were performed as previously described. Briefly, peptide binding to proteins was analyzed using the following carboxyfluorescein (CF) -labelled pepti des at a concentration of 10 nM: STAT1: 5-CF-GpYDKPHVL-OH, STAT3: 5-CF-GpYLPQTV -NH2, STAT4: 5-CF-GpYLPQNID-OH, STAT5a and STAT5b: 5-CF-GpYLVLDKW-OH, STAT6: 5- […]
CFGp[…]-OH. Proteins were used at a final concentration representing the approximate Kd value for binding of the corresponding peptide to the protein, namely 65 nM for STAT1, 65 nM for STAT3, 35 nM for STAT4, 125 nM for STAT5a, 65 nM for STAT5b and 75 nM for STAT6. […] FP was measured using an Infinite F500 plate reader (Tecan) and measurements were converted into percent inhibition according to the binding curve equation. Curves were plotted and best fits calculated using OriginPro […]

STAT4 = biological target: T1, STAT4 (Homo sapiens, UniProt Q14765); assay: HTRF assay, STAT4; type: binding; details: STAT4 30 nM, without reducing agent, 1 h
T1 sequence (Q14765 1-748): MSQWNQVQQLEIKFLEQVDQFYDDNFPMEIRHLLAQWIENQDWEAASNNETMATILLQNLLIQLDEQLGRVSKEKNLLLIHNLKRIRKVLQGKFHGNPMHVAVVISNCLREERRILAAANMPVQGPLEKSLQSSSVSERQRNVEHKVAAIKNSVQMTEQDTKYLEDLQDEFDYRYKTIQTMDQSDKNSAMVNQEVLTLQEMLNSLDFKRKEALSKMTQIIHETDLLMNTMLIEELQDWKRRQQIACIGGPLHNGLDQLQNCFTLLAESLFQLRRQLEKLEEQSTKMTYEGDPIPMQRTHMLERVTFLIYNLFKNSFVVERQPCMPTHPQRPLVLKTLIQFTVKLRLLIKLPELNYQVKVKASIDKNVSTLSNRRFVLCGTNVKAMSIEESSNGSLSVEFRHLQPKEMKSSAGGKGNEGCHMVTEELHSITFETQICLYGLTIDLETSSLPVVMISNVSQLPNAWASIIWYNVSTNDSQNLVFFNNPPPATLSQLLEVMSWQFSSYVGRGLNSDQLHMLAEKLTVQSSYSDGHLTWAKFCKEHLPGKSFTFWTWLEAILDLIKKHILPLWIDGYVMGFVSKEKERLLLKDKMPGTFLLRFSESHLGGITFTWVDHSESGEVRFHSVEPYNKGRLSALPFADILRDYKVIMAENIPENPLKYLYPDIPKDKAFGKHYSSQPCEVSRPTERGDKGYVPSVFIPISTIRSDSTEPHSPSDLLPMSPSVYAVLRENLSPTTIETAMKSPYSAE
From the text: The azo dyes PPADS and iso‐PPADS have a deep red color in aqueous solution. […] In order to exclude this possibility, we established homogeneous time‐resolved fluorescence resonance energy transfer (HTRF) assays to confirm the degree of binding between STAT4, STAT5a, and STAT5b and the respective 5‐carboxyfluorescein‐labeled binding peptides used in the FP assay. In addition, an HTRF assay was established for STAT3, one of the STAT proteins targeted to a lesser extent in FP assays, as a specificity control (Figure 1B,C). The STAT protein constructs each contain a 6x‐His‐tag.^[ [15], [16], [17], [22] ^] A Tb^3+‐cryptate fused to an anti‐6x‐His antibody was chosen as the long‐lived fluorescent donor, while the carboxyfluorescein linked to the respective STAT‐binding peptides served as the acceptor (Figure 2A). Emission was measured with a time delay of 60 μs after excitation, allowing any initial compound fluorescence to decay beforehand. […]
Screening of chemical libraries comprising approximately 5000 known bioactive compounds in fluorescence polarization-based assays against phosphorylation-dependent protein-protein interaction domains, including STAT proteins, has been described.[1] […]
as §1
as §2, with “STAT3,[3] STAT4,[4] STAT5a,[5] STAT5b[6] and STAT6[1] were performed as previously described.” left out
CFGp[…]-OH. […] FP was measured using an Infinite F500 plate reader (Tecan) and measurements were converted into percent inhibition according to the binding curve equation. Curves were plotted and best fits calculated using OriginPro […]
Homogenous time-resolved fluorescence (HTRF) assays for STAT3, STAT4, STAT5a and STAT5b were carried out using Cisbio Monoclonal Antibody Anti-6His-Tb Gold as the fluorescence donor (Perkin Elmer) and the corresponding CF-labelled binding peptide as the acceptor. […] The average reading from 3 wells was obtained. […]

Chain of STAT3 (P40763 whole entry, species assumed): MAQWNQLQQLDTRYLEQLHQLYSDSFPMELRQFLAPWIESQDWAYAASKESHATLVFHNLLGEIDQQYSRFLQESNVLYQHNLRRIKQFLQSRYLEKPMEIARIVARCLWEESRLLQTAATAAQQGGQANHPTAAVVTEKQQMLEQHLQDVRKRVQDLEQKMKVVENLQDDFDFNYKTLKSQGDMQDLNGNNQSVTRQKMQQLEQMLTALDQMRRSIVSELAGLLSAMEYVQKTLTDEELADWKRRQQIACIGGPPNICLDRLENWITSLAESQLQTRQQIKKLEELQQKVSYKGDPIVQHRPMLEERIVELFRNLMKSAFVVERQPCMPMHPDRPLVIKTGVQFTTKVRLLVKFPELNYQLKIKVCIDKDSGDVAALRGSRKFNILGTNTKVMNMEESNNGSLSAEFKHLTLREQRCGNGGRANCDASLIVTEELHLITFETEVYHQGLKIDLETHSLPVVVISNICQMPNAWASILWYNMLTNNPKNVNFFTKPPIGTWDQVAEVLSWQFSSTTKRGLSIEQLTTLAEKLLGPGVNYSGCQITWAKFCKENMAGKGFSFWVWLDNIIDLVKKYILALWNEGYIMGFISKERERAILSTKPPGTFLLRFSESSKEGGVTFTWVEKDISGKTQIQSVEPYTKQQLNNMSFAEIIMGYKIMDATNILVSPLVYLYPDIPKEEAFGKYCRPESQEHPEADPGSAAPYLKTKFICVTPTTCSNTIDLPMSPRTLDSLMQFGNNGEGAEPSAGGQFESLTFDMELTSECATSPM

Row | SMILES | IC50 (STAT3) [µM] | IC50 (STAT4) [µM]
1 | Cc1nc(/N=N/c2ccc(S(=O)(=O)O)cc2S(=O)(=O)O)c(COP(=O)(O)O)c(C=O)c1O [PPADS, pyridoxalphosphate‐6‐azophenyl‐2',4'‐disulfonic acid] | 22.6 ± 1.6 | 2.92 ± 0.36
2 | Cc1nc(/N=N/c2cc(S(=O)(=O)O)ccc2S(=O)(=O)O)c(COP(=O)(O)O)c(C=O)c1O [iso‐PPADS] | 54 ± 14 | 8.6 ± 1.3
